Test results published in EP1124556B1, “USE OF OPTICALLY PURE (R)-TOFISOPAM FOR TREATING AND PREVENTING ANXIETY DISORDERS” (priority 1998, dated 2000).
Values joined by “and” are separate entries in the source; they are usually repeats but may differ in a detail not shown here. Identical values can stand only once.

Assays:
[1] = cited from earlier work
benzodiazepine receptor = conditions: cited from earlier work
[2] = in vivo; cited from earlier work
Male Long Evans rats = experiment: Head-twitch response assay (potentiation of 5-MeODMT-induced head-twitches) for anxiolytic activity; assay type: in vivo; design: Score: scale not given here; conditions: for Head Twitch: one hour before interperitoneal 3mg/kg 5-MeODMT, number of head-twitches over 1-5 minute period post injection, individual rats No. 1-3; for Score: group of 3 rats
Protocol: Dry preparations of tofisopam, R-tofisopam or S-tofisopam were dissolved in 2% Tween 80/5% DMSO for oral administration in a blind assay. Diazepam (Sigma, U.S.A.) was similarly dissolved in DMSO (Merck, Germany), distilled water and Tween 80 (Wako Pure Industries, Ltd., Japan).
Male Long Evans rats provided by animal breeding center of MDS Panlabs Taiwan, Ltd., were used. Space allocation for animals was as follows: 45 x 23 x 15 cm for 6 rats. Rats were housed in APEC® (Allentown Gaging, Allentown, NJ 08501, U.S.A.) cages in a positive pressure isolator (NuAire® , Mode: Nu-605, airflow velocity 50± 5 ft/min, HEPA Filter). All animals were maintained in a controlled temperature (22°C - 24°C) and humidity (60% - 80%) environment with 12 hours light dark cycles for at least one week in MDS Panlabs Taiwan laboratory prior to being used. Free access to standard lab chow for rats (Fwusow Industry Co., Limited, Taiwan) and tap water was granted. All aspects of this work including housing, experimentation and disposal of animals were performed in general accordance with the International Guiding Principles for Biomedical Research Involving Animals (CIOMS Publication No. ISBN 92 90360194, 1985).
Moser, P.C., "The Effect of Novel Axiolytics on the Head-Twitch Response in Mice" British J. Pharmacol Suppl. 99:248P (1990) . Based on those assays, test substances were administered orally to the rats one hour before interperitoneal injection of 3mg/kg 5-MeODMT. The number of head-twitches over a 1-5 minute period post injection were recorded (Table 1).

patients = conditions: cited from earlier work
site II of HSA = site II of HSA (Homo sapiens, UniProt P02768); conditions: cited from earlier work
[3] = Conformer interconversion in solution; assay type: physicochemical
Protocol: The enantiomers of tofisopam were resolved by chiral chromatography. For example, tofisopam (42.8mg dissolved in acetonitrile) was loaded onto a Chirobiotic V column (ASTEC, Whippany, NJ). Elution of the compounds with MTBE/ACN 90/10 (v/v), 40ml/min, was monitored at 310nm, 2mm path. The R(+) enantiomer was the first compound to elute from the column. The R(+) enantiomer was collected, dried and stored for use in biological assays. R(-)-tofisopam ("A" ' ) , S (-/+) tofisopam ("B" and "B' ") , and residual R(+)-tofisopam ("A") co-eluted and was collected in a subsequent fraction (e.g., FIG. 1, fraction 2). Approximately 20% of the R(+)-tofisopam in fraction 1 is converted into R(-)-tofisopam if left in solution for 24 hours. A 80/20 stable equilibrium (R+/R-) was observed between the two conformers in MTBE/ACN (90/10) solution at room temperature.

dopamine (D2L) receptor = dopamine (D2L) receptor (Homo sapiens, UniProt P14416); experiment: Dopamine receptor binding (preliminary results)
Chain of dopamine (D2L) receptor (P14416 whole entry): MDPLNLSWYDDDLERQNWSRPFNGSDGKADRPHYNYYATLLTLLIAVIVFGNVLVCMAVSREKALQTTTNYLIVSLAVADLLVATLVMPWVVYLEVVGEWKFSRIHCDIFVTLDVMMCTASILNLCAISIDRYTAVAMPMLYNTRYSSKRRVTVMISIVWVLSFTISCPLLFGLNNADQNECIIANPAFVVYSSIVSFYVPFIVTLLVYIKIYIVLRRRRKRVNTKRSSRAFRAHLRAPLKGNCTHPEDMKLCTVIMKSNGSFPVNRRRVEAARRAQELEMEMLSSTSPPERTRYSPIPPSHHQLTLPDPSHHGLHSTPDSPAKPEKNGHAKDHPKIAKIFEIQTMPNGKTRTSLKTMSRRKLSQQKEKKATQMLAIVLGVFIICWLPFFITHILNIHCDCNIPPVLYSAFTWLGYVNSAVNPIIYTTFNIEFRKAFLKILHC

Chain of site II of HSA (P02768 25-609): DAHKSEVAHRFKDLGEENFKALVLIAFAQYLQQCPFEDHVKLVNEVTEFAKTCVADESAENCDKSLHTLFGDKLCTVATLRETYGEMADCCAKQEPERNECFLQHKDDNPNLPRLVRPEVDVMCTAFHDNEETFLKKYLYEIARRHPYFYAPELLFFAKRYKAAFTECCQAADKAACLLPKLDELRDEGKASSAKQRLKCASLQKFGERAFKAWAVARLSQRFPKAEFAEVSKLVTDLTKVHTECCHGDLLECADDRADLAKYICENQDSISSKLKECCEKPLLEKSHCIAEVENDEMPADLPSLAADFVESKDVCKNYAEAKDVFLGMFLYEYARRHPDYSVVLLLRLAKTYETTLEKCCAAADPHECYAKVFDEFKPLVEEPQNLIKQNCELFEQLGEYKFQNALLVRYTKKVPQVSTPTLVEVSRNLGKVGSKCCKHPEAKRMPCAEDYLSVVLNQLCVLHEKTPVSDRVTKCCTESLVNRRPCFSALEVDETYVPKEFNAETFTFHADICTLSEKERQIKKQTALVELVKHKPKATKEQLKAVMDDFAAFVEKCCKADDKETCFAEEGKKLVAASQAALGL

Q: For `O=C1CCC(N2C(=O)c3ccccc3C2=O)C(=O)N1` (racemic) [racemic thalidomide], which “solubility relative to its separate isomers” value [1] is on record?
A: ten times less soluble

Q: What does the source list for `CCC1C(C)=NN=C(c2ccc(OC)c(OC)c2)c2cc(OC)c(OC)cc21` (racemic) [tofisopam, 1-(3,4-dimethoxy-phenyl) - 4-methyl-5-ethyl-7,8-dimethoxy-5H-2,3-benzodiazepine]?
A: binding to the benzodiazepine receptor (benzodiazepine receptor): does not bind to the benzodiazepine receptor; binding of BDZs to their receptors (benzodiazepine receptor; in vivo and in vitro, after acute and chronic treatment): enhances the binding of BDZs to their receptors; anticonvulsive, muscle relaxant or sedative effects [2]: not have anticonvulsive, muscle relaxant or sedative effects; Head Twitch (Male Long Evans rats; PO 30 mg/kg): 0; Score (Male Long Evans rats; PO 30 mg/kg): 0; patients reporting side effects during treatment (patients; double-blind study, 4 weeks, 57 outpatients with anxiety and depression): twenty-one; anxiolytic effect (patients; multicenter study, 325 patients, 3 weeks, 150-1300 mg/day): effective anxiolytic

Q: For `CN1C(=O)CN=C(c2ccccc2)c2cc(Cl)ccc21` [Diazepam], which “Head Twitch” value (Male Long Evans rats; PO 10 mg/kg) is on record?
A: 5 and 1 and 9

Q: What about the Score (Male Long Evans rats; PO 10 mg/kg) of the same molecule?
A: 2

Q: For `N[C@@H](Cc1c[nH]c2ccccc12)C(=O)O` [L-Tryptophan], which “affinity for site II of HSA relative to the other enantiomer” value (site II of HSA) is on record?
A: about 100 times

Q: What does the source list for `CC[C@H]1C(C)=NN=C(c2ccc(OC)c(OC)c2)c2cc(OC)c(OC)cc21` [R(+)-tofisopam]?
A: stable equilibrium (R+/R-) ([3]; MTBE/ACN (90/10) solution at room temperature): 80/20; converted into R(-)-tofisopam ([3]; left in solution for 24 hours): Approximately 20%

Q: For `CC[C@H]1C(C)=NN=C(c2ccc(OC)c(OC)c2)c2cc(OC)c(OC)cc21` [R-tofisopam, R-1-(3,4-dimethoxyphenyl)-5-ethyl-7,8-dimethoxy-4-methyl-5H-2,3-benzodiazepine], which “Head Twitch” value (Male Long Evans rats; PO 30 mg/kg) is on record?
A: 0 and 2 and 1

Q: And the Score (Male Long Evans rats; PO 30 mg/kg)?
A: 1

Q: What about the “side effects related to binding to the dopamine (D2L) receptor” value (dopamine (D2L) receptor) of the same molecule?
A: cannot manifest side effects related to binding to the dopamine (D2L) receptor

Q: Which results are given for `CC[C@@H]1C(C)=NN=C(c2ccc(OC)c(OC)c2)c2cc(OC)c(OC)cc21` [S-tofisopam]?
A: Head Twitch (Male Long Evans rats; PO 30 mg/kg): 0; Score (Male Long Evans rats; PO 30 mg/kg): 0
